Counter-ions that a name gives are not always drawn. Like-named read-outs stand apart in the source and are kept apart here.
System: LMP1 expression in Kem I cells
Experiment: microbe, parasite or virus in culture
Format: cell-based, EBV
Details: for Average LMP1 Fold Increase / Replicate 1-LMP1 Fold Increase / Replicate 2-LMP1 Fold Increase: Kem I cells, 48 hours; for fold induction at 2.5 µM: human gammaherpesvirus 4, 48 h
[1] = 2.5 uM, average of replicates 1 and 2
[2] = 2.5 uM, fold change in LMP1 transcript vs vehicle
[3] = read-out: Average LMP1 Fold Increase, Kem I cells, 2.5 uM, 48 hours, average of replicates 1 and 2
[4] = read-out: Replicate 1-LMP1 Fold Increase, Kem I cells, 2.5 uM, 48 hours, fold change in LMP1 transcript vs vehicle
[5] = read-out: Replicate 2-LMP1 Fold Increase, Kem I cells, 2.5 uM, 48 hours, fold change in LMP1 transcript vs vehicle
[6] = dose 2.5 uM, LMP1 transcript by in-well qRT-PCR, average of the two replicates
[7] = dose 2.5 uM, LMP1 transcript by in-well qRT-PCR, screen replicate 1
[8] = dose 2.5 uM, LMP1 transcript by in-well qRT-PCR, screen replicate 2
[9] = read-out: Average LMP1 Fold Increase, Kem I cells, dose 2.5 uM, 48 hours, LMP1 transcript by in-well qRT-PCR, average of the two replicates
[10] = read-out: Replicate 1-LMP1 Fold Increase, Kem I cells, dose 2.5 uM, 48 hours, LMP1 transcript by in-well qRT-PCR, screen replicate 1
[11] = read-out: Replicate 2-LMP1 Fold Increase, Kem I cells, dose 2.5 uM, 48 hours, LMP1 transcript by in-well qRT-PCR, screen replicate 2

Compound: Oc1ccc(Nc2nc(-c3ccc(Cl)cc3)cs2)cc1 [SKI II]
- Average LMP1 Fold Increase [1]: 1.00
- Replicate 1-LMP1 Fold Increase [2]: 0.96
- Replicate 2-LMP1 Fold Increase [2]: 1.03

Compound: O=C1NC(=O)/C(=C/c2cccc(C(F)(F)F)c2)S1 [SMI-4a]
- Average LMP1 Fold Increase [1]: 0.41
- Replicate 1-LMP1 Fold Increase [2]: 0.29
- Replicate 2-LMP1 Fold Increase [2]: 0.53

Compound: CC(C)(C)c1cnc(CSc2cnc(NC(=O)C3CCNCC3)s2)o1 [SNS-032 (BMS-387032)]
- Average LMP1 Fold Increase [1]: 23.97
- Replicate 1-LMP1 Fold Increase [2]: 23.56
- Replicate 2-LMP1 Fold Increase [2]: 24.39

Compound: Oc1c2ccccc2c2c3c(cccc13)N=N2 [SP600125]
- fold induction at 2.5 µM [3]: 0.6
- fold induction at 2.5 µM [4]: 0.67
- fold induction at 2.5 µM [5]: 0.53

Compound: O=C(Nc1cc(C(F)(F)F)ccc1N1CCCCC1)c1ccncc1 [SRPIN340]
- Average LMP1 Fold Increase [1]: 0.84
- Replicate 1-LMP1 Fold Increase [2]: 1.24
- Replicate 2-LMP1 Fold Increase [2]: 0.44

Compound: O=C(Nc1ccccc1-c1cn2c(CN3CCNCC3)csc2n1)c1cnc2ccccc2n1 [SRT1720]
- Average LMP1 Fold Increase [1]: 0.64
- Replicate 1-LMP1 Fold Increase [2]: 0.58
- Replicate 2-LMP1 Fold Increase [2]: 0.70

Compound: COc1c(C)c(C(=O)c2ccc(N)c(C(=O)[O-])c2)n2ccccc12.[Na+] [SSR128129E]
- Average LMP1 Fold Increase [1]: 0.44
- Replicate 1-LMP1 Fold Increase [2]: 0.36
- Replicate 2-LMP1 Fold Increase [2]: 0.52

Compound: Cc1ccc(S(=O)(=O)Cc2nc(-c3ccc(C(=O)NCc4cccnc4)cc3)oc2C)cc1 [STF-118804]
- Average LMP1 Fold Increase [1]: 0.10
- Replicate 1-LMP1 Fold Increase [2]: 0.08
- Replicate 2-LMP1 Fold Increase [2]: 0.11

Compound: Cc1[nH]c(/C=C2\C(=O)Nc3ccc(S(=O)(=O)N(C)c4cccc(Cl)c4)cc32)c(C)c1C(=O)N1CCN(C)CC1 [SU11274]
- fold induction at 2.5 µM [3]: 0.94
- fold induction at 2.5 µM [4]: 1.05
- fold induction at 2.5 µM [5]: 0.82

Compound: C[C@H](NCc1ccc(OCc2cccc(F)c2)cc1)C(N)=O [Safinamide Mesylate]
- fold induction at 2.5 µM [3]: 0.95
- fold induction at 2.5 µM [4]: 0.2
- fold induction at 2.5 µM [5]: 1.71

Compound: O=C(/C=C/c1ccccc1)NC(NC(=S)Nc1ccc(Cl)cc1)C(Cl)(Cl)Cl (stereo not drawn) [Sal003]
- Average LMP1 Fold Increase [1]: 0.64
- Replicate 1-LMP1 Fold Increase [2]: 0.76
- Replicate 2-LMP1 Fold Increase [2]: 0.53

Compound: Cn1cnc2c(F)c(Nc3ccc(Br)cc3Cl)c(C(=O)NOCCO)cc21 [Selumetinib (AZD6244)]
- Average LMP1 Fold Increase [1]: 0.54
- Replicate 1-LMP1 Fold Increase [2]: 0.64
- Replicate 2-LMP1 Fold Increase [2]: 0.44

Compound: CC(C)[C@H](O)C(=O)N[C@@H](C)C(=O)N[C@@H]1C(=O)N(C)CCc2ccccc21 [Semagacestat (LY450139)]
- Average LMP1 Fold Increase [1]: 0.45
- Replicate 1-LMP1 Fold Increase [2]: 0.31
- Replicate 2-LMP1 Fold Increase [2]: 0.59

Compound: CN[C@H]1CC[C@@H](c2ccc(Cl)c(Cl)c2)c2ccccc21 [Sertraline HCl]
- fold induction at 2.5 µM [3]: 1.07
- fold induction at 2.5 µM [4]: 0.81
- fold induction at 2.5 µM [5]: 1.33

Compound: CC(NC(=O)c1ccccc1/N=C/c1c(O)ccc2ccccc12)c1ccccc1 (stereo not drawn) [Sirtinol]
- fold induction at 2.5 µM [3]: 0.6
- fold induction at 2.5 µM [4]: 0.28
- fold induction at 2.5 µM [5]: 0.92

Compound: Cc1cc2c(cc1CC(=O)c1sccc1S(=O)(=O)Nc1onc(C)c1Cl)OCO2 [Sitaxentan sodium]
- fold induction at 2.5 µM [3]: 0.25
- fold induction at 2.5 µM [4]: 0.16
- fold induction at 2.5 µM [5]: 0.34

Compound: Nc1ccc(C(=O)O)c(O)c1 [Sodium 4-Aminosalicylate]
- fold induction at 2.5 µM [3]: 0.36
- fold induction at 2.5 µM [4]: 0.19
- fold induction at 2.5 µM [5]: 0.53

Compound: CNC(=O)c1cc(Oc2ccc(NC(=O)Nc3ccc(Cl)c(C(F)(F)F)c3)cc2)ccn1 [Sorafenib]
- fold induction at 2.5 µM [3]: 0.54
- fold induction at 2.5 µM [4]: 0.43
- fold induction at 2.5 µM [5]: 0.64

Compound: CN1CCN(c2nc(C3=C(c4c[nH]c5ccccc45)C(=O)NC3=O)c3ccccc3n2)CC1 [Sotrastaurin]
- fold induction at 2.5 µM [3]: 0.31
- fold induction at 2.5 µM [4]: 0.3
- fold induction at 2.5 µM [5]: 0.31

Compound: O=[N+]([O-])c1ccc2c(c1)S(=O)(=O)C=C2 [Stattic]
- Average LMP1 Fold Increase [1]: 26.57
- Replicate 1-LMP1 Fold Increase [2]: 50.36
- Replicate 2-LMP1 Fold Increase [2]: 2.79

Compound: Cc1cn([C@H]2C=C[C@@H](CO)O2)c(=O)[nH]c1=O [Stavudine (d4T)]
- Average LMP1 Fold Increase [1]: 0.73
- Replicate 1-LMP1 Fold Increase [2]: 0.83
- Replicate 2-LMP1 Fold Increase [2]: 0.63

Compound: Cc1ccc(-n2nccn2)c(C(=O)N2CCN(c3nc4cc(Cl)ccc4o3)CC[C@H]2C)c1 [Suvorexant (MK-4305)]
- Average LMP1 Fold Increase [6]: 1.47 fold
- Replicate 1-LMP1 Fold Increase [7]: 0.37 fold
- Replicate 2-LMP1 Fold Increase [8]: 2.57 fold

Compound: O=C(Nc1ccncc1)c1cc([N+](=O)[O-])ccc1Cl [T0070907]
- Average LMP1 Fold Increase [6]: 0.56 fold
- Replicate 1-LMP1 Fold Increase [7]: 0.63 fold
- Replicate 2-LMP1 Fold Increase [8]: 0.50 fold

Compound: O=S(=O)(c1ccccc1)N(CC(F)(F)F)c1ccc(C(O)(C(F)(F)F)C(F)(F)F)cc1 [T0901317]
- fold induction at 2.5 µM [9]: 0.44
- fold induction at 2.5 µM [10]: 0.41
- fold induction at 2.5 µM [11]: 0.47

Compound: CNC(=O)c1ccccc1Nc1nc(Nc2ccc(N3CCOCC3)cc2OC)ncc1Cl [TAE226 (NVP-TAE226)]
- Average LMP1 Fold Increase [6]: 1.35 fold
- Replicate 1-LMP1 Fold Increase [7]: 1.38 fold
- Replicate 2-LMP1 Fold Increase [8]: 1.31 fold

Compound: CNC(=O)c1ccc2cc([C@@]3(O)CCn4cncc43)ccc2c1 [TAK-700 (Orteronel)]
- Average LMP1 Fold Increase [6]: 0.90 fold
- Replicate 1-LMP1 Fold Increase [7]: 0.75 fold
- Replicate 2-LMP1 Fold Increase [8]: 1.06 fold

Compound: Cc1cc(OCCCS(C)(=O)=O)cc(C)c1-c1cccc(COc2ccc3c(c2)OC[C@H]3CC(=O)O)c1 [TAK-875]
- fold induction at 2.5 µM [9]: 0.57
- fold induction at 2.5 µM [10]: 0.55
- fold induction at 2.5 µM [11]: 0.59

Compound: O=C1CC(=O)c2c(Cl)c(Cl)c(Cl)c(Cl)c21 [TCID]
- Average LMP1 Fold Increase [6]: 0.52 fold
- Replicate 1-LMP1 Fold Increase [7]: 0.66 fold
- Replicate 2-LMP1 Fold Increase [8]: 0.38 fold

Compound: COc1ccc(C(=O)Nc2sc3c(c2C(N)=O)CCCC3)cc1OC [TCS 359]
- Average LMP1 Fold Increase [6]: 0.40 fold
- Replicate 1-LMP1 Fold Increase [7]: 0.62 fold
- Replicate 2-LMP1 Fold Increase [8]: 0.19 fold

Compound: Nc1nc(N)c2nc(-c3cccc(O)c3)c(-c3cccc(O)c3)nc2n1 [TG100-115]
- Average LMP1 Fold Increase [6]: 0.53 fold
- Replicate 1-LMP1 Fold Increase [7]: 0.33 fold
- Replicate 2-LMP1 Fold Increase [8]: 0.73 fold

Compound: NC(=O)Nc1sc(-c2ccc(F)cc2)cc1C(N)=O [TPCA-1]
- Average LMP1 Fold Increase [6]: 0.48 fold
- Replicate 1-LMP1 Fold Increase [7]: 0.59 fold
- Replicate 2-LMP1 Fold Increase [8]: 0.36 fold

Compound: Nc1cccc(-c2cc3c(Oc4cccc(O)c4)ncnc3[nH]2)c1 [TWS119]
- Average LMP1 Fold Increase [6]: 0.56 fold
- Replicate 1-LMP1 Fold Increase [7]: 0.62 fold
- Replicate 2-LMP1 Fold Increase [8]: 0.49 fold

Compound: CN1CC(=O)N2[C@H](c3ccc4c(c3)OCO4)c3[nH]c4ccccc4c3C[C@@H]2C1=O [Tadalafil]
- fold induction at 2.5 µM [9]: 3.06
- fold induction at 2.5 µM [10]: 3.8
- fold induction at 2.5 µM [11]: 2.32

Compound: COc1cc2c(N3CCN(C(=O)Nc4ccc(OC(C)C)cc4)CC3)ncnc2cc1OCCCN1CCCCC1 [Tandutinib (MLN518)]
- Average LMP1 Fold Increase [6]: 0.31 fold
- Replicate 1-LMP1 Fold Increase [7]: 0.21 fold
- Replicate 2-LMP1 Fold Increase [8]: 0.41 fold

Compound: COc1cc2c(cc1OC)CN(CCc1ccc(NC(=O)c3cc(OC)c(OC)cc3NC(=O)c3cnc4ccccc4c3)cc1)CC2 [Tariquidar]
- fold induction at 2.5 µM [9]: 0.71
- fold induction at 2.5 µM [10]: 0.56
- fold induction at 2.5 µM [11]: 0.87

Compound: CCCc1nc2c(C)cc(-c3nc4ccccc4n3C)cc2n1Cc1ccc(-c2ccccc2C(=O)O)cc1 [Telmisartan]
- fold induction at 2.5 µM [9]: 0.37
- fold induction at 2.5 µM [10]: 0.29
- fold induction at 2.5 µM [11]: 0.45

Compound: CO[C@H]1C[C@@H]2CC[C@@H](C)[C@@](O)(O2)C(=O)C(=O)N2CCCC[C@H]2C(=O)O[C@H]([C@H](C)C[C@@H]2CC[C@@H](OC(=O)C(C)(CO)CO)[C@H](OC)C2)CC(=O)[C@H](C)/C=C(\C)[C@@H](O)[C@@H](OC)C(=O)[C@H](C)C[C@H](C)/C=C/C=C/C=C/1C [Temsirolimus (CCI-779, NSC 683864)]
- Average LMP1 Fold Increase [6]: 155.77 fold
- Replicate 1-LMP1 Fold Increase [7]: 1.06 fold
- Replicate 2-LMP1 Fold Increase [8]: 310.48 fold

Compound: CC(C)OC(=O)OCOP(=O)(CO[C@H](C)Cn1cnc2c(N)ncnc21)OCOC(=O)OC(C)C [Tenofovir Disoproxil Fumarate]
- fold induction at 2.5 µM [9]: 0.56
- fold induction at 2.5 µM [10]: 0.21
- fold induction at 2.5 µM [11]: 0.9

Compound: C[C@H](Cn1cnc2c(N)ncnc21)OCP(=O)(O)O [Tenofovir]
- Average LMP1 Fold Increase [6]: 0.18 fold
- Replicate 1-LMP1 Fold Increase [7]: 0.18 fold
- Replicate 2-LMP1 Fold Increase [8]: 0.19 fold

Compound: CN(C)CCCCC(=O)Nc1ccc(NC(=S)NC(=O)c2ccc(C(C)(C)C)cc2)cc1 [Tenovin-6]
- Average LMP1 Fold Increase [6]: 1.79 fold
- Replicate 1-LMP1 Fold Increase [7]: 1.55 fold
- Replicate 2-LMP1 Fold Increase [8]: 2.03 fold

Compound: O=C(NCc1ccccc1)c1csc(Nc2ccncn2)n1 [Thiazovivin]
- Average LMP1 Fold Increase [6]: 1.05 fold
- Replicate 1-LMP1 Fold Increase [7]: 1.05 fold
- Replicate 2-LMP1 Fold Increase [8]: 1.04 fold

Compound: CCCSc1nc(N[C@@H]2C[C@H]2c2ccc(F)c(F)c2)c2nnn([C@@H]3C[C@H](OCCO)[C@@H](O)[C@H]3O)c2n1 [Ticagrelor]
- fold induction at 2.5 µM [9]: 0.66
- fold induction at 2.5 µM [10]: 0.61
- fold induction at 2.5 µM [11]: 0.7
